Data reported in patent publication US6737383B1, “Herbicidal oxadiazolidines” (priority 1999, dated 2004).

Columns and labels:
giant foxtail = assay: Test B pre/postemergence giant foxtail; format: in vivo, Setaria faberii
Procedure, shortened: (§1)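 Test chemicals in a non-phytotoxic solvent mixture with surfactant were sprayed preemergence onto planted seeds and postemergence onto plants 2 to 18 cm tall (1- to 4-leaf stage). After twelve to sixteen days in a greenhouse, injury was visually rated against untreated controls from 0 (no effect) to 10 (complete control).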

sugar beet = assay: Test B pre/postemergence sugar beet; format: in vivo, Beta vulgaris
Procedure, shortened: as §1

purple nutsedge = assay: Test B pre/postemergence purple nutsedge; format: in vivo, Cyperus rotundus
Procedure, shortened: as §1

soybean = assay: Test B pre/postemergence soybean; format: in vivo, Glycine max
Procedure, shortened: as §1

velvetleaf = assay: Test B pre/postemergence velvetleaf; format: in vivo, Abutilon theophrasti
Procedure, shortened: as §1

rape = assay: Test B pre/postemergence rape; format: in vivo, Brassica napus
Procedure, shortened: as §1

smallflower flatsedge = assay: Test B flood test smallflower flatsedge; format: in vivo, Cyperus difformis
Procedure, shortened: (§2)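 Read-out is a visual response score from 0 (no effect) to 10 (complete control), assigned by comparison with untreated controls. Treatment was applied at the 2-leaf stage, and plants stayed in the greenhouse for twelve to sixteen days before scoring.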

duck salad = assay: Test B flood test duck salad; format: in vivo, Heteranthera limosa
Procedure, shortened: as §2

pigweed = assay: Test B pre/postemergence pigweed; format: in vivo, Amaranthus retroflexus
Procedure, shortened: as §1

morningglory = assay: Test B pre/postemergence morningglory; format: in vivo, Ipomoea hederacea
Procedure, shortened: as §1

wild oat = assay: Test B pre/postemergence wild oat; format: in vivo, Avena fatua
Procedure, shortened: as §1

bamyardgrass = assay: Test B flood test barnyardgrass; format: in vivo, Echinochloa crus-galli
Procedure, shortened: as §2

bedstraw = assay: Test B pre/postemergence bedstraw; format: in vivo, Galium aparine
Procedure, shortened: as §1

wheat = assay: Test B pre/postemergence wheat; format: in vivo, Triticum aestivum
Procedure, shortened: as §1

rice = assay: Test B flood test rice; format: in vivo, Oryza sativa
Procedure, shortened: as §2

blackgrass = assay: Test B pre/postemergence blackgrass; format: in vivo, Alopecurus myosuroides
Procedure, shortened: as §1

[1] = Postemergence, Rate 62 g/ha, scale 0 to 10, 0 is no effect, 10 is complete control
[2] = Postemergence, Rate 250 g/ha, scale 0 to 10, 0 no effect, 10 complete control
[3] = Preemergence, Rate 31 g/ha, visual rating, scale 0 to 10 (0 no effect, 10 complete control)
[4] = Preemergence, Rate 62 g/ha, scale 0 to 10, 0 is no effect, 10 is complete control
[5] = Preemergence, Rate 125 g/ha, scale 0 to 10 (0 no effect, 10 complete control)
[6] = Preemergence, Rate 250 g/ha, scale of 0 to 10 where 0 is no effect and 10 is complete control
[7] = Rate 31 g/ha, Postemergence, scale 0 to 10
[8] = Rate 125 g/ha, Postemergence, scale 0 to 10, 0 no effect, 10 complete control
[9] = Rate 125 g/ha, Postemergence section (flood test species), scale 0 to 10, 0 no effect, 10 complete control
[10] = flood test, listed under Postemergence, Rate 250 g/ha, scale 0 to 10, 0 no effect, 10 complete control
[11] = Rate 500 g/ha, Postemergence section of Table B, 0 to 10 scale (0 no effect, 10 complete control)

COc1ccc(-n2c(=O)on(C(=O)N(c3ccc(F)cc3F)C(C)C)c2=O)c(OC)c1 [Compound 32]
Giant foxtail plant response rating (giant foxtail; [1]): 0 | Giant foxtail plant response rating (giant foxtail; [2]): 0 | Giant foxtail plant response rating (giant foxtail; [3]): 1 | Plant response rating, Giant foxtail (giant foxtail; [4]): 4 | Plant response rating, Giant foxtail (giant foxtail; [5]): 8 | Plant response rating, Giant foxtail (giant foxtail; [6]): 9 | Giant foxtail plant response rating (giant foxtail; [7]): 0 | Giant foxtail plant response rating (giant foxtail; [8]): 0 | Sugarbeets plant response rating (sugar beet; [1]): 0 | Sugarbeets plant response rating (sugar beet; [2]): 0 | Sugarbeets plant response rating (sugar beet; [3]): 0 | Plant response rating, Sugarbeets (sugar beet; [4]): 0 | Plant response rating, Sugarbeets (sugar beet; [5]): 0 | Plant response rating, Sugarbeets (sugar beet; [6]): 0 | Sugarbeets plant response rating (sugar beet; [8]): 0 | Nutsedge plant response rating (purple nutsedge; [1]): 0 | Nutsedge plant response rating (purple nutsedge; [2]): 0 | Nutsedge plant response rating (purple nutsedge; [3]): 0 | Plant response rating, Nutsedge (purple nutsedge; [4]): 0 | Plant response rating, Nutsedge (purple nutsedge; [5]): 0 | Plant response rating, Nutsedge (purple nutsedge; [6]): 0 | Nutsedge plant response rating (purple nutsedge; [7]): 0 | Nutsedge plant response rating (purple nutsedge; [8]): 0 | Soybean plant response rating (soybean; [1]): 2 | Soybean plant response rating (soybean; [2]): 2 | Soybean plant response rating (soybean; [3]): 0 | Plant response rating, Soybean (soybean; [4]): 0 | Plant response rating, Soybean (soybean; [5]): 0 | Plant response rating, Soybean (soybean; [6]): 0 | Soybean plant response rating (soybean; [8]): 2 | Velvetleaf plant response rating (velvetleaf; [1]): 0 | Velvetleaf plant response rating (velvetleaf; [2]): 0 | Velvetleaf plant response rating (velvetleaf; [3]): 0 | Plant response rating, Velvetleaf (velvetleaf; [4]): 0 | Plant response rating, Velvetleaf (velvetleaf; [5]): 0 | Plant response rating, Velvetleaf (velvetleaf; [6]): 0 | Velvetleaf plant response rating (velvetleaf; [8]): 0 | Rape plant response rating (rape; [1]): 0 | Rape plant response rating (rape; [2]): 0 | Rape plant response rating (rape; [3]): 0 | Plant response rating, Rape (rape; [4]): 0 | Plant response rating, Rape (rape; [5]): 0 | Plant response rating, Rape (rape; [6]): 0 | Rape plant response rating (rape; [7]): 0 | Rape plant response rating (rape; [8]): 0 | S. Flatsedge plant response rating (smallflower flatsedge; [1]): 0 | S. Flatsedge plant response rating (smallflower flatsedge; [9]): 0 | S. Flatsedge plant response rating (smallflower flatsedge; [10]): 2 | Ducksalad plant response rating (duck salad; [1]): 0 | Ducksalad plant response rating (duck salad; [9]): 0 | Ducksalad plant response rating (duck salad; [11]): 2 | Ducksalad plant response rating (duck salad; [10]): 0 | Redroot pigweed plant response rating (pigweed; [1]): 0 | Redroot pigweed plant response rating (pigweed; [2]): 0 | Redroot pigweed plant response rating (pigweed; [3]): 0 | Plant response rating, Redroot pigweed (pigweed; [4]): 0 | Plant response rating, Redroot pigweed (pigweed; [5]): 0 | Plant response rating, Redroot pigweed (pigweed; [6]): 0 | Redroot pigweed plant response rating (pigweed; [7]): 0 | Redroot pigweed plant response rating (pigweed; [8]): 0 | Morningglory plant response rating (morningglory; [1]): 6 | Morningglory plant response rating (morningglory; [2]): 8 | Morningglory plant response rating (morningglory; [3]): 0 | Plant response rating, Morningglory (morningglory; [4]): 0 | Plant response rating, Morningglory (morningglory; [5]): 0 | Plant response rating, Morningglory (morningglory; [6]): 2 | Morningglory plant response rating (morningglory; [7]): 6 | Morningglory plant response rating (morningglory; [8]): 7 | Wild oats plant response rating (wild oat; [1]): 0 | Wild oats plant response rating (wild oat; [2]): 0 | Wild oats plant response rating (wild oat; [3]): 0 | Plant response rating, Wild oats (wild oat; [5]): 0 | Plant response rating, Wild oats (wild oat; [6]): 2 | Wild oats plant response rating (wild oat; [8]): 0 | Barnyardgrass plant response rating (bamyardgrass; [1]): 0 | Barnyardgrass plant response rating (bamyardgrass; [9]): 0 | Barnyardgrass plant response rating (bamyardgrass; [11]): 9 | Barnyardgrass plant response rating (bamyardgrass; [10]): 8 | Bedstraw plant response rating (bedstraw; [1]): 0 | Bedstraw plant response rating (bedstraw; [2]): 0 | Bedstraw plant response rating (bedstraw; [3]): 0 | Plant response rating, Bedstraw (bedstraw; [4]): 0 | Plant response rating, Bedstraw (bedstraw; [5]): 0 | Plant response rating, Bedstraw (bedstraw; [6]): 0 | Bedstraw plant response rating (bedstraw; [7]): 0 | Bedstraw plant response rating (bedstraw; [8]): 0 | Wheat plant response rating (wheat; [1]): 0 | Wheat plant response rating (wheat; [2]): 0 | Wheat plant response rating (wheat; [3]): 0 | Plant response rating, Wheat (wheat; [4]): 0 | Plant response rating, Wheat (wheat; [5]): 0 | Plant response rating, Wheat (wheat; [6]): 0 | Wheat plant response rating (wheat; [8]): 0 | Rice plant response rating (rice; [1]): 0 | Rice plant response rating (rice; [9]): 0 | Rice plant response rating (rice; [11]): 0 | Rice plant response rating (rice; [10]): 0 | Blackgrass plant response rating (blackgrass; [1]): 0 | Blackgrass plant response rating (blackgrass; [2]): 7 | Blackgrass plant response rating (blackgrass; [3]): 0 | Plant response rating, Blackgrass (blackgrass; [4]): 1 | Plant response rating, Blackgrass (blackgrass; [5]): 2 | Plant response rating, Blackgrass (blackgrass; [6]): 4 | Blackgrass plant response rating (blackgrass; [7]): 0 | Blackgrass plant response rating (blackgrass; [8]): 0
